Where two headings read alike, the source gives them in different places.
Key:
[1] = system: GLUT4-PL in CHO/pGLUT4-PL.1 cells; details: 30 min, serum-containing media, thrombin 20 units/ml
Experimental: In this experiment, CHO/pGLUT4-PL.1 cells were treated for 30 min with 0, 0.1, 1, and 10 μM insulin in serum-containing media. The liquid above the cells was then replaced with buffer containing thrombin at 20 units/ml and processed for the intact-cell EFC assay.
1) Seed cells into individual wells at a density of 10,000 cells in 100 μl media. For transient transfectants, replace the media above cells with fresh media one day post-transfection. Perform the intact-cell EFC assay two days after seeding the cells. To assay GLUT4-PL at the cell surface under basal growth conditions (serum-containing media, no exogenous insulin), proceed to step 3.
2) For insulin induction, add 20 μl/well of insulin diluted in media to 6× system concentration (e.g., add 20 μl of 6 μM insulin to the 100 μl liquid above cells to achieve an insulin system concentration of 1 μM). Return plate to incubator for 30 min. Starving cells of serum 2-to-4 hours prior to adding insulin diluted in serum-free media may achieve a larger insulin-response window.
3) Remove the media above the cells by aspiration. Add 50 μl/well thrombin solution (20 units/ml thrombin; 1×PBS; 0.1 mg/ml BSA; 10 mM each KF and NaAzide (NaN3)). Return plate to incubator for 1 hr. […]
5) Add 30 μl/well CL Substrate. […] Readings are taken at periodic intervals from 15 min to 1 hr on a luminescence plate reader.

[2] = molecular target: T1, GLUT4-PL in CHO/pGLUT4-PL.1 cells (Homo sapiens, UniProt P14672, INS67[…]); assay: intact-cell EFC assay, thrombin release of ProLabel from GLUT4-PL; assay type: cell-based; details: thrombin 60 units/ml, intact CHO cells expressing pGLUT4-PL.1
T1 construct: expressed in transfected cells; host or cells: CHO cells transfected with plasmid pGLUT4-PL.1
T1 sequence (P14672 with tags, fused parts or gaps INS67[withheld]): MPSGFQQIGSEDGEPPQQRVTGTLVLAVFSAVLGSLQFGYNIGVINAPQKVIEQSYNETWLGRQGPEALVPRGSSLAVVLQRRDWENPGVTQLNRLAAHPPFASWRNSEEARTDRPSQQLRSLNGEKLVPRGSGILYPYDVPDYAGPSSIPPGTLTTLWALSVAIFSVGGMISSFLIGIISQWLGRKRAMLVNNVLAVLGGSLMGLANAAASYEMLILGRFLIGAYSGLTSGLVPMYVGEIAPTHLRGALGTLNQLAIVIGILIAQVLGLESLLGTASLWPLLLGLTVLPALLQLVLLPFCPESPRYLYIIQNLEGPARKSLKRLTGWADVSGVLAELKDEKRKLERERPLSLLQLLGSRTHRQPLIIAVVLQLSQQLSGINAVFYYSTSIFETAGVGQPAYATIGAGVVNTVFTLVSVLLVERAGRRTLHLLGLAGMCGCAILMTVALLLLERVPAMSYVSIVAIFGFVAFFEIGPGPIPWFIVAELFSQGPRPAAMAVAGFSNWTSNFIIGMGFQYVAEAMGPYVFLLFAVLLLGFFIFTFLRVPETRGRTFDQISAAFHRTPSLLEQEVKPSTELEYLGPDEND
Experimental: Detection of GLUT4-PL after protease cleavage. Central to the concept of using EFC to monitor GLUT4-PL at the cell surface is the proteolytic release of the internal ProLabel tag from the protein's first exofacial loop. Initial studies were therefore directed at developing and characterizing an intact-cell EFC protocol using thrombin protease. All of the experiments described below were carried out in 96-well assay plates. To test whether thrombin treatment could enhance EFC signal, intact cells expressing pGLUT4-PL.1 were treated with 50 μl buffer alone or buffer containing thrombin at increasing concentrations. Eighty μl of a solution containing EA and the protease inhibitor AEBSF (7.5 mM final concentration) were added subsequently, followed by 30 μl of chemiluminescent substrate. Thrombin treatment led to a dose-dependent enhancement of EFC activity, with 60 units/ml enhancing EFC activity 4.4-fold over untreated cells (FIG. 4). To test whether thrombin proteolytic activity per se, and not a non-specific component of the thrombin formulation was responsible for the increased EFC signal, a control experiment was performed by inactivating thrombin with AEBSF prior to its addition to cells.

[3] = system: HeLa/IκB-PL cells; assay: cell integrity control, intact-cell EFC assay on cells expressing cytoplasmic reporter IκB-PL; assay type: cell-based; details: series of increasing thrombin concentrations
Experimental: CHO/pGLUT4-PL.1 and HeLa/IκB-PL cells were assayed in parallel with a series of increasing thrombin concentrations (FIG. 6). As had been observed above, thrombin treatment of CHO/pGLUT4-PL.1 cells led to a dose-dependent increase in EFC activity.

[4] = molecular target: GLUT4-ProLabel fusion protein encoded by plasmid pGLUT4-PL.1 (human); assay: cell-based or functional assay
Chain of GLUT4-ProLabel fusion protein encoded by plasmid pGLUT4-PL.1 (human) (chain, as listed by the source limits assumed): as the sequence (P14672 with tags, fused parts or gaps INS67[withheld]) above

## insulin
[1]; 1 μM insulin
  increase in EFC activity relative to the no-insulin control: 15%
[1]; 10 μM insulin
  increase in EFC activity relative to the no-insulin control: 40%

## thrombin
[2]
  enhancement of EFC activity over untreated cells: 4.4 fold
[3]
  dose-dependent increase in EFC activity (cell integrity): no such increase was observed

## thrombin protease (enzyme)
[4]
  EFC activity (enzyme fragment complementation, chemiluminescence) of intact CHO/pGLUT4-PL.1 cells: 4.4 fold
